In patent US10071133B2, “Method for destroying exosomes, kit for destroying exosomes, and method for isolating exosomes derived from normal cells” (priority 2015, dated 2018):

Tests used:
Assay type in all cases: biochemical
[1] = tested on: exosome fraction B derived from human breast cancer cells versus exosome fraction derived from human mammary gland cells (MCF-10A, normal cells); assay: Selectivity: miR-16 ratio, breast cancer exosomes versus mammary gland normal cell exosomes (Formula 1); details: for mir-16 ratio: Formula 1, cancer/normal (MCF-10A), 100 μM peptide, 37° C., 24 hours; for Selectivity: from miR-16 ratio versus Comparative Example 8, breast cancer vs MCF-10A exosomes
Protocol: (§1) A cell suspension of cell line MDA-MB-231-luc-D3H2LN derived from human breast cancer (=MM231-luc-D3H2LN, provided by the National Cancer Center Research Institute) was seeded in a dish containing RPMI 1640 medium (manufactured by Thermo Fisher Scientific Inc.) containing 10% fetal bovine serum. Subsequently, the cell line was grown at 37° C. under the condition that CO2 concentration was set to 5 volume % using a CO2 incubator, and then the medium was replaced with Advanced RPMI 1640 medium (manufactured by Thermo Fisher Scientific Inc.), followed by culturing for 48 hours, and therefore the culture solution containing exosomes was obtained. This culture solution was centrifuged at 2,000 G for 10 minutes to remove the precipitate, followed by centrifugation at 110,000 G for 70 minutes to precipitate the exosomes, and therefore an exosome fraction B was recovered. The recovered exosome fraction B was suspended in a phosphate buffered saline (PBS) and then stored at 4° C. Storage samples were lightly suspended with a vortex mixer (vibration mixer) before use.
A cell suspension of cell line MCF 10A derived from human mammary epithelial cells (provided by the National Cancer Center Research Institute) was seeded in a dish containing Mammary Epithelium Cell Basal Medium (manufactured by Lonza). Subsequently, the cell line was grown at 37° C. under the condition that CO2 concentration was set to 5 volume % using a CO2 incubator, and then the medium was replaced with a fresh medium, followed by culturing for 48 hours, and the culture solution containing exosomes was obtained. This culture solution was centrifuged at 2,000 G for 10 minutes to remove the precipitate, followed by centrifugation at 110,000 G for 70 minutes to precipitate the exosomes, and an exosome fraction was recovered. The recovered exosome fraction was suspended in a phosphate buffered saline (PBS) and then stored at 4° C. Storage samples were lightly suspended with a vortex mixer (vibration mixer) before use.
(§2) MicroRNA (miR-21 or miR-16) in the reaction solution was subjected to reverse transcription PCR using reverse transcription primers (manufactured by Thermo Fisher Scientific Inc., Taqman microRNA Assays, RT primers, and hsa-mir-21 or hsa-mir-16) and a reverse transcriptase (manufactured by Thermo Fisher Scientific Inc., Taqman microRNA RT kit).
(§3) The reverse transcription PCR solution obtained by the above described method was processed and by comparing the number of cycles on a calibration curve of microRNA using Taqman Assay primer (manufactured by Thermo Fisher Scientific Inc., Taqman microRNA Assays, Taqman Assay primer, and hsa-mir-21 or hsa-mir-16) and Real-Time PCR Master Mixes (manufactured by Thermo Fisher Scientific Inc., TaqMan Universal PCR Master Mix II, w/UNG) with StepOnePlus Real-Time PCR System, MiR-21 or miR-16 was quantified. The calibration curve of microRNA was created using synthetic miR-21 (manufactured by Sigma-Aldrich Co. LLC.) or synthetic miR-16 (manufactured by Sigma-Aldrich Co. LLC.).
10 μL of the exosome fraction was prepared such that PBS contains 1×10^11 particles/mL of the exosome fraction B derived from human breast cancer cells, various antimicrobial peptides shown in the following Table 4 adjusted to 100 μM, and 0.4 U/μL of RNase inhibitor (manufactured by Toyobo Co., Ltd.), followed by incubation by being left to stand at 37° C. for 24 hours.
Thereafter, the eluted MicroRNA (miR-16) was purified and recovered from the incubated solution by the same method as the above described method for extraction from the incubated solution of Examples 10 and 11 above and Comparative Examples 6 and 7 above. […]

[2] = tested on: exosome fraction B derived from human breast cancer cells (MDA-MB-231-luc-D3H2LN); assay: Extraction of microRNA (miR-21) from exosomes derived from human breast cancer cells, real-time PCR; details: 100 μM peptide, 1×10^11 particles/mL exosomes, 0.4 U/μL RNase inhibitor, 37° C., 24 hours; without peptide 8×10^−14M
Protocol: as §1, §2, §3
10 μL of the exosome fraction was prepared such that PBS contains 1×10^11 particles/mL of the exosome fraction B derived from human breast cancer cells, various antimicrobial peptides shown in the following Table 2 adjusted to 100 μM, and 0.4 U/μL of RNase inhibitor (manufactured by Toyobo Co., Ltd.), followed by incubation by being left to stand at 37° C. for 24 hours.
MicroRNA eluted into the solution was purified and recovered from the incubated solution of Example 10 above and Comparative Example 6 above by the following method.
First, 160 μL of PBS was added to the reaction solution, and then the solution was added to a centrifugal filter (manufactured by Millipore Corporation, Amicon Ultra 0.5 mL, 100K filter) and centrifuged at 14,000 G for 2 minutes. Subsequently, 100 μL of the centrifuged filtrate was recovered and introduced into a 1.5 mL tube. Next, 350 μL of RLT buffer (manufactured by QIAGEN, attached with RNeasy mini kit) and 675 μL of ethanol were added and mixed in the 1.5 mL tube. The obtained mixture was separated into two parts, and each of the separates was added onto a spin column (manufactured by QIAGEN, attached with RNeasy mini kit) followed by centrifugation at 8,000 G for 15 seconds, and the entire amount of the mixture was passed through the spin column. Thereafter, 500 μL of RPE buffer (manufactured by QIAGEN, attached with RNeasy mini kit) was added thereto and centrifuged at 8,000 G for 15 seconds. Furthermore, 500 μL of the RPE buffer was added to the spin column once more and centrifuged at 8,000 G for 15 seconds. Thereafter, the spin column was centrifuged at 14,000 G for 1 minute to remove the residual RPE buffer. Next, 30 μL of RNase free water (manufactured by QIAGEN, attached with RNeasy mini kit) was added to the spin column, left for 1 minute, and then centrifuged at 14,000 G for 1 minute, and the eluate obtained thereby was recovered. […]

[3] = tested on: exosomes derived from cancer cells; assay: Preliminary examination of destructive ability of anticancer peptides against exosomes derived from cancer cells
From the text: Specifically, the present inventors have come to realize the following knowledge.

[4] = tested on: exosome derived from human prostate cancer cells (PC3ML); assay: Extraction of microRNA (miR-21) from exosome derived from prostate cancer cells, real-time PCR; details: 100 μM peptide, 1×10^11 particles/mL PC3ML exosomes, 0.4 U/μL RNase inhibitor, 37° C., 24 hours; without peptide 3×10^−14M
Protocol: A cell suspension of cell line PC3ML derived from human prostate cancer cells (provided by the National Cancer Center Research Institute) was seeded in a dish containing RPMI 1640 medium (manufactured by Thermo Fisher Scientific Inc.) containing 10% fetal bovine serum. Subsequently, the cell line was grown at 37° C. under the condition that CO2 concentration was set to 5 volume % using a CO2 incubator, and then the medium was replaced with Advanced RPMI 1640 medium (manufactured by Thermo Fisher Scientific Inc.), followed by culturing for 48 hours, and the culture solution containing exosomes was obtained. This culture solution was centrifuged at 2,000 G for 10 minutes to remove the precipitate, followed by centrifugation at 110,000 G for 70 minutes to precipitate the exosomes, and therefore an exosome fraction was recovered. The recovered exosome fraction was suspended in a phosphate buffered saline (PBS) and then stored at 4° C. Storage samples were lightly suspended with a vortex mixer (vibration mixer) before use. […]
The reverse transcription PCR solution obtained by the above described method was processed and by comparing the number of cycles on a calibration curve of microRNA using Taqman Assay primer (manufactured by Thermo Fisher Scientific Inc., Taqman microRNA Assays, Taqman Assay primer, and hsa-mir-21 or hsa-mir-16) and Real-Time PCR Master Mixes (manufactured by Thermo Fisher Scientific Inc., TaqMan Universal PCR Master Mix II, w/UNG) with StepOnePlus Real-Time PCR System, MiR-21 or miR-16 was quantified. […]
The amount of microRNA (miR-21) contained in the recovered eluate was quantified by the above described real-time PCR method. […] In addition, the destructive activity of the antimicrobial peptide used was evaluated on the basis of the following criteria based on the quantitative result of the concentration of microRNA (miR-21) performed by the real-time PCR method. […]

[5] = tested on: exosome fraction A prepared from the cell line MM231-luc-D3H2LN derived from human breast cancer cells; assay: Destruction of exosomes in PBS, number of exosomes by nanoparticle analyzer (NanoSight LM10); details: 50 μM peptide, 1.36×10^10 particles/mL exosomes in PBS, 25° C., 48 hours
From the text: Storage samples were lightly suspended with a vortex mixer (vibration mixer) before use.

Molecule	mir-16 ratio [1]	Selectivity [1]	Destructive activity (concentration of microRNA miR-21 in eluate) [2]	destructive ability against the exosomes derived from cancer cells [3]	Destructive activity (concentration of microRNA miR-21 in eluate) [4]	number of exosomes in the solution [5]
CC[C@H](C)[C@H](NC(=O)CN)C(=O)NCC(=O)N[C@@H](C)C(=O)N[C@H](C(=O)N[C@@H](CC(C)C)C(=O)N[C@@H](CCCCN)C(=O)N[C@H](C(=O)N[C@@H](CC(C)C)C(=O)N[C@H](C(=O)N[C@H](C(=O)NCC(=O)N[C@@H](CC(C)C)C(=O)N1CCC[C@H]1C(=O)N[C@@H](C)C(=O)N[C@@H](CC(C)C)C(=O)N[C@H](C(=O)N[C@@H](CO)C(=O)N[C@@H](Cc1c[nH]c2ccccc12)C(=O)N[C@H](C(=O)N[C@@H](CCCCN)C(=O)N[C@@H](CCCNC(=N)N)C(=O)N[C@@H](CCCCN)C(=O)N[C@@H](CCCNC(=N)N)C(=O)N[C@@H](CCC(N)=O)C(=O)N[C@@H](CCC(N)=O)C(N)=O)[C@@H](C)CC)[C@@H](C)CC)[C@@H](C)O)[C@@H](C)O)C(C)C)C(C)C [Melittin]	42	B (evaluated as “B” in a case where the calculated miR-16 value was higher than the miR-16 ratio of Comparative Example 8)	A (the concentration of microRNA is 50×10^−14M or more)	–	–	–
A6K: amino acid sequence AAAAAAK (Ac-AAAAAAK-NH2)	–	–	D (the concentration of microRNA is less than 10×10^−14M)	no or a low level	–	–
Caerin 1.1	27	B (evaluated as “B” in a case where the calculated miR-16 value was higher than the miR-16 ratio of Comparative Example 8)	A (the concentration of microRNA is 50×10^−14M or more)	–	–	–
Hepcidin TH2-3	–	–	D (the concentration of microRNA is less than 10×10^−14M)	no or a low level	–	–
K6L9 (LKLLKKLLKKLLKLL)	–	–	B (the concentration of microRNA is 10×10^−14M to 50×10^−14M)	–	A (the concentration of microRNA is 10×10^−14M or more)	–
LL-37	18	B (evaluated as “B” in a case where the calculated miR-16 value was higher than the miR-16 ratio of Comparative Example 8)	A (the concentration of microRNA is 50×10^−14M or more)	–	–	1.09×10^9 particles/mL
Lactoferricin [Example 4]	–	–	–	–	–	7.47×10^9 particles/mL
Maximin 1	22	B (evaluated as “B” in a case where the calculated miR-16 value was higher than the miR-16 ratio of Comparative Example 8)	B (the concentration of microRNA is 10×10^−14M to 50×10^−14M)	–	–	–
Maximin 4	311	B (evaluated as “B” in a case where the calculated miR-16 value was higher than the miR-16 ratio of Comparative Example 8)	B (the concentration of microRNA is 10×10^−14M to 50×10^−14M)	–	–	–
Nisin [Example 3]	–	–	–	–	–	4.51×10^9 particles/mL
PR-39 (RRRPRPPYLPRPRPPPFFPPRLPPRIPPGFPPRFPPRFP)	–	–	D (the concentration of microRNA is less than 10×10^−14M)	no or a low level	–	–
Polybia-MPI	–	–	B (the concentration of microRNA is 10×10^−14M to 50×10^−14M)	–	A (the concentration of microRNA is 10×10^−14M or more)	–
mCRAMP (GLLRKGGEKIGEKLKKIGQKIKNFFQKLVPQPEQ)	9	B (evaluated as “B” in a case where the calculated miR-16 value was higher than the miR-16 ratio of Comparative Example 8)	A (the concentration of microRNA is 50×10^−14M or more)	–	–	–
